Reference: paper PMC8341744 (RSC Chemical Biology, 2020)
Like-named read-outs stand apart in the source and are kept apart here.

Key:
Mcl-1 [1] = biological target: T1, Mcl-1 (Mus musculus, UniProt P97287, F227L/F267C/G222D/K236S/Q303E/S261T/T274S/V232I/V262I); assay: FITC-NoxaB Mcl-1 competitive binding fluorescence anisotropy
Mcl-1 [2] = biological target: T1, Mcl-1; conditions: Mcl-1/Noxa; parent peptide; cited from earlier work

T1 sequence (P97287 152-308 G222D/F227L/V232I/K236S/S261T/V262I/F267C/T274S/Q303E): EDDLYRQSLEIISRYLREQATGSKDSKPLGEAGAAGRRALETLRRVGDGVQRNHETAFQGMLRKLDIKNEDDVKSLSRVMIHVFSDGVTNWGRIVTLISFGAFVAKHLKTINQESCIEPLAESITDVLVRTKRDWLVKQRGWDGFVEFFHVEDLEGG

| Compound | IC50 (Mcl-1 [1]) | IC50 (Mcl-1 [2]) |
| --- | --- | --- |
| CC(=O)O[C@@H]1[C@@H](OC(C)=O)[C@H](OC(C)=O)CO[C@H]1n1cc(-c2ccc(Cl)cc2)nn1 [compound 7, (2R,3R,4S,5R)-2-(4-(4-chlorophenyl)-1H-1,2,3-triazol-1-yl)tetrahydro-2H-pyran-3,4,5-triyl triacetate] | 4.39 µM | – |
| AAQLRRIGDKVNLRQKLLN [NoxaB-(75–93)-C75A peptide] | – | 0.65 µM |
| CC(=O)O[C@@H]1[C@@H](OC(C)=O)[C@H](OC(C)=O)CO[C@H]1n1cc(-c2ccc(Br)cc2)nn1 [compound 8, (2R,3R,4S,5R)-2-(4-(4-bromophenyl)-1H-1,2,3-triazol-1-yl)tetrahydro-2H-pyran-3,4,5-triyl triacetate] | 7.03 µM | – |
